ChEMBL document CHEMBL1201862, “PubChem BioAssay data set” (2004)
Active and inactive are the calls of the source.

Tests used:
[1] = target: T1, Mannose-6-phosphate isomerase (Homo sapiens, UniProt P34949); assay: human PMI inhibitors, high substrate, primary screen, biochemical, fluorescence intensity, high mannose 6-phosphate (AID 1220)
T1 sequence (P34949 whole entry): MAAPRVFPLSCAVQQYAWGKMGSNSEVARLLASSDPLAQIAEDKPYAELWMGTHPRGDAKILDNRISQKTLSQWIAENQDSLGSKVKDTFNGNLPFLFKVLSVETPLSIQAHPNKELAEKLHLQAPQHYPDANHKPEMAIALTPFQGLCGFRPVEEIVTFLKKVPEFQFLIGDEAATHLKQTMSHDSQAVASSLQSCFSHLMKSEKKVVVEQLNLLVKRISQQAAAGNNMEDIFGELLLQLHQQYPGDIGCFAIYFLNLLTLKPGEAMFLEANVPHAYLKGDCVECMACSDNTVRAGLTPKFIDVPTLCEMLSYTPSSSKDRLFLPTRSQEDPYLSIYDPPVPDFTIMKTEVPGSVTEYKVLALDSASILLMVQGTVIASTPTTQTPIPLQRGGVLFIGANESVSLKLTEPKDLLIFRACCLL

[2] = target: T2, ORF 73 (Human herpesvirus 8, UniProt O40947); assay: inhibitors of C-LANA binding to LBS DNA, dose response, biochemical, fluorescence polarization, cherry-picked samples (AID 504725); parameters: species or system Human gammaherpesvirus 8;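 further: fluorescence polarization of a labeled DNA duplex reporting LANA DNA binding; potency is for inhibitors that block LANA binding to the DNA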
T2 sequence (O40947 whole entry): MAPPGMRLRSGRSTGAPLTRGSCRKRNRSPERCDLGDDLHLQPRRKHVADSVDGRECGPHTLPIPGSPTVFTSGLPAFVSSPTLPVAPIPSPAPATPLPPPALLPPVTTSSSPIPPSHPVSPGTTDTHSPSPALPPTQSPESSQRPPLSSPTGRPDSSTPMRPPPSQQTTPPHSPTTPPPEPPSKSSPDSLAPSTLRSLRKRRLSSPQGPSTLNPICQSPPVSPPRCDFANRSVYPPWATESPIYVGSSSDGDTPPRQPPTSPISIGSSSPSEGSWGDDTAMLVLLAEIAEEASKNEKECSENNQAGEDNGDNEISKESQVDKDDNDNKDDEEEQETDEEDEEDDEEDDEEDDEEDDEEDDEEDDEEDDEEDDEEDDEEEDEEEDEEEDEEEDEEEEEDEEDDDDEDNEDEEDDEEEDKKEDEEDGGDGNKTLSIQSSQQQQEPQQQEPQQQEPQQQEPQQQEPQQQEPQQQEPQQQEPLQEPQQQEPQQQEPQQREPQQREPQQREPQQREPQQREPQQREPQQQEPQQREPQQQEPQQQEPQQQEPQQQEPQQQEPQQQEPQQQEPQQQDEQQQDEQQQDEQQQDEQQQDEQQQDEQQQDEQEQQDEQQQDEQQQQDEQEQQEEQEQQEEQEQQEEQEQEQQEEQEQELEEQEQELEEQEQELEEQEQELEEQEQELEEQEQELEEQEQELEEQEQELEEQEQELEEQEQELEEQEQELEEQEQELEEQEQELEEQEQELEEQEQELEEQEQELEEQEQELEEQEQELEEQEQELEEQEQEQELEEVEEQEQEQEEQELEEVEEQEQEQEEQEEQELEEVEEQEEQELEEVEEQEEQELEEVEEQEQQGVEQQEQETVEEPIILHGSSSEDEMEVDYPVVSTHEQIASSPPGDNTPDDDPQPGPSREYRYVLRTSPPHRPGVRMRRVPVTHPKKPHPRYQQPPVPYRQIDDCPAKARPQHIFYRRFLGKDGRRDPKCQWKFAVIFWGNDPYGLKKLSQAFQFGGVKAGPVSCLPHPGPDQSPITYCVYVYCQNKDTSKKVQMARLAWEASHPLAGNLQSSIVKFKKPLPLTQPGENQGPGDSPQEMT

[3] = target: UDP-galactopyranose mutase (Mycobacterium tuberculosis, UniProt P9WIQ1); assay: Inhibitors of Mycobacterium tuberculosis UDP-galactopyranose mutase (UGM) enzyme Measured in Biochemical System Using Plate Reader - 2105-02_Inhibitor_Dose_CherryPick_Activity. [Related pubchem assays (depositor defined):AID504439]
Chain of UDP-galactopyranose mutase (P9WIQ1 whole entry, the tested form may be a part): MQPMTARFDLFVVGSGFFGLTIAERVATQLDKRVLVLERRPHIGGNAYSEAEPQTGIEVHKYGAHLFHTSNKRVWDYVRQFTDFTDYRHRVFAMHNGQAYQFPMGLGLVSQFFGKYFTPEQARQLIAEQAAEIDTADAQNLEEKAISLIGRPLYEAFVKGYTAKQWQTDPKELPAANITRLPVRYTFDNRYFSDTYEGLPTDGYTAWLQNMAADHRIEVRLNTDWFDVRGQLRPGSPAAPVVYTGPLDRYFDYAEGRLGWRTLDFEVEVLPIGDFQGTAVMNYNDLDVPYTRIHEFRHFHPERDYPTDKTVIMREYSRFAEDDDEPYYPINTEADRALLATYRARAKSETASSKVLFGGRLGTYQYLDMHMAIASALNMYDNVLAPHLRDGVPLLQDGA

[4] = target: T3, RNA-binding protein pos-1 (Caenorhabditis elegans, UniProt G5EF15); assay: inhibitors of POS-1/mex-3 RNA binding, dose response, biochemical, fluorescence polarization (AID 1964);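 further: purified POS-1 fused to maltose binding protein made in E. coli; potency of compounds blocking POS-1 binding to fluorescent RNA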
T3 sequence (G5EF15 whole entry): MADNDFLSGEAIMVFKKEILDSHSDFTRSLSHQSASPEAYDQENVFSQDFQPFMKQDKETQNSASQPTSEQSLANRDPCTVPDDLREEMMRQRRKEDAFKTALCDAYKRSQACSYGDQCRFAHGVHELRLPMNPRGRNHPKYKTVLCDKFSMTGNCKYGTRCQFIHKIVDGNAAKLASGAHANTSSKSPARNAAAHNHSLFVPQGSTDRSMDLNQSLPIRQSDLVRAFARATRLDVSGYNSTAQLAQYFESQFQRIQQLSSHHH

[5] = target: T4, Zinc finger protein mex-5 (Caenorhabditis elegans, UniProt Q9XUB2); assay: MEX-5/TCR-2 RNA interaction inhibitors, dose response, biochemical, C. elegans, fluorescence polarization (AID 1960)
T4 sequence (Q9XUB2 whole entry): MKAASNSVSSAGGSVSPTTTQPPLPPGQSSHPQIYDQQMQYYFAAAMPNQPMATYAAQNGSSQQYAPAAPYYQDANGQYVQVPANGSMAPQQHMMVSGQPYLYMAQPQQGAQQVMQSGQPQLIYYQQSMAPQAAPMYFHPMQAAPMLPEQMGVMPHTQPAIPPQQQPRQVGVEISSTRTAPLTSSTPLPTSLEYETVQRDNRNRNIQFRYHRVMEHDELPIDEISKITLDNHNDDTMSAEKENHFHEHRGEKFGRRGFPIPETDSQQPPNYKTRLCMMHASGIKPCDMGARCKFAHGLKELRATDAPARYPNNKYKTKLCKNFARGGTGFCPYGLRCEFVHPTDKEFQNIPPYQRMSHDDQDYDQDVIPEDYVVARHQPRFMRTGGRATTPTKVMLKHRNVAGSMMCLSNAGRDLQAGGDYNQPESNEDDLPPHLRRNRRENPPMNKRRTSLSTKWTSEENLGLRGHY

[6] = tested on: Streptococcus; assay: Group A Streptococcus viability loss, dose response, counter-screen for streptokinase expression inhibitor project, luminescence, BacTiterGlo (AID 1915); assay type: functional, organism-based;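 further: potency for reduction of bacterial viability or growth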
[7] = miR-122 activators in hepatoma reporter cells, dose response, cell-based, Huh7 psiCHECK-miR122, Renilla luciferase, cherry-picked (AID 651956); assay type: functional;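 further: huh7 hepatoma cells stably carrying a psiCHECK-2 miR-122 sensor plasmid; renilla luciferase signal reporting endogenous miR-122 activity after 48 h compound exposure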
[8] = HEK293T cytotoxicity, dose response, cytotoxicity control for miR-122 modulator project, cell-based, inhibitor set, cherry-pick, set 2 (AID 720697); assay type: functional

| SMILES | IC50 [1] | AC50 [2] | AC50 [3] | EC50 [4] | EC50 [5] | EC50 [6] | AC50 [7] | AC50 [8] |
| --- | --- | --- | --- | --- | --- | --- | --- | --- |
| O=C1CCN2C=Nc3cccc4ccc1c2c34 | > 58 µM (not active) | 1.42 µM (active) | 2.33 µM (active) | – | – | – | – | – |
| Oc1ccc2ccccc2c1/C=N/Nc1nnc(-c2ncc[nH]2)c2ccccc12 | – | – | – | 48.7 µM (inconclusive) | 2.45 µM (active) | 5.84 µM (active) | 37.6 µM (active) | 2.19 µM (active) |
| CC(C)C(C(=O)O)N1C(=O)/C(=C/C=C/c2ccco2)SC1=S (stereo unspecified) | – | 45.6 µM (active) | – | 11 µM (inconclusive) | 19.4 µM (inconclusive) | – | – | – |
